Data on nine molecules can be found in patent US10899754B2, “Modulators of indoleamine 2,3-dioxygenase” (GLAXOSMITHKLINE INTELLECTUAL PROPERTY DEVELOPMENT LIMITED, priority 2016, dated 2021).

Series [1] has as its system human peripheral blood mononuclear cells (PBMC). The experiment in a line: PBMC cytotoxicity assay (CellTiter-Glo). It is filed as cell-based. Particulars: 2 days, pCC50. In outline:
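Human PBMC (50,000 cells/well) stimulated with IFN-γ 100 ng/ml and LPS 50 ng/ml were exposed to 11-point 3-fold compound dilutions for 2 days at 37 °C, 5% CO2. Viability read by CellTiter-Glo ATP luminescence and normalized to no-cell and stimulated-DMSO controls. XC50 derived by four-parameter fit.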
In general terms: Cellular ATP, detected with luciferase, serves as a proxy for viable cell number.

The target in series [2] is T1, indoleamine 2, 3-dioxygenase (IDO1) (Homo sapiens, UniProt P14902). As to the kind of experiment: IDO1 PBMC RapidFire MS assay (kynurenine detection by mass spectrometry). It is filed as cell-based. Details: to induce the expression of indoleamine 2, 3-dioxygenase (IDO1); host or cells: human PBMC stimulated with IFN-gamma and LPS. Particulars: human PBMC stimulated with IFN-γ and LPS, 2 days; for IC50: pIC50, read-out: PBMC PXC50 (converted). An outline of the steps: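 PBMCs (50,000 cells/well) stimulated with IFN-γ 100 ng/ml plus LPS 50 ng/ml, treated with 11-point 3-fold compound series for 2 days at 37° C. Supernatant kynurenine measured by RapidFire MS, normalised to internal standard; parallel cytotoxicity by CellTiter-Glo luminescence; curves fitted for XC50.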
T1 sequence (P14902 whole entry): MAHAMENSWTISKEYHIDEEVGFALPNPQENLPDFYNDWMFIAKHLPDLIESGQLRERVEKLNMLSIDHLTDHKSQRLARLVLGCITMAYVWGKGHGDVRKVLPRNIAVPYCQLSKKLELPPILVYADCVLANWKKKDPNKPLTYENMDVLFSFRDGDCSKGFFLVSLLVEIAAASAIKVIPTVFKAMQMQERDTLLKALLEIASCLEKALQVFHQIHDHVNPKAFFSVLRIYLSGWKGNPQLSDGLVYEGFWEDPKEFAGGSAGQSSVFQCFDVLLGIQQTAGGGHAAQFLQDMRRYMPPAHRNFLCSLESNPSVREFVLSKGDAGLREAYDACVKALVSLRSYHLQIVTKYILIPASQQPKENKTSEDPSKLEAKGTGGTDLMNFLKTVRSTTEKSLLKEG

The target in the next series is T2, ePL tagged IDO1 (Homo sapiens, UniProt P14902).
T2 construct: expressed in transfected cells; host or cells: HeLa cells transduced with BacMam virus
T2 sequence (P14902 whole entry): as above
As to the kind of experiment: CETSA (Cellular Thermal Shifting assay) in Hela cells. It counts as binding. Particulars: BacMam ePL tagged IDO1, 3 hours at 37° C., heated at 53° C. for 3 min. As to the method:
Cellular Thermal Shifting assays were used to directly monitor the ligand binding to target proteins in cells. Hela cells were transduced with BacMam virus expressing ePL tagged IDO1 overnight. The cells were then plated over the compounds for 3 hours at 37° C. in cell culture medium containing 1% FBS. The plates were then sealed and heated at 53° C. for 3 min. InCell Hunter reagents were added and luminescence was read in 90 min.

For series [3], the system named is human epithelial HeLa cells. The experiment in a line: HeLa cytotoxicity assay (CellTiter-Glo). The conditions noted are these: pCC50. It is filed as cell-based. An outline of the steps:
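HeLa cells (5,000/well) stimulated with 10 nM IFN-γ, exposed to 11-point 3-fold compound dilutions for 2 days at 37 °C; viability by CellTiter-Glo ATP luminescence. Normalized to cell-free (100% cytotoxicity) and stimulated-cell DMSO (0%) controls; four-parameter fit gives pCC50.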

The target in series [4] is T1, indoleamine 2, 3-dioxygenase (IDO1). The experiment in a line: IDO1 HeLa RapidFire MS assay (kynurenine detection by mass spectrometry). The conditions noted are these: HeLa cells, pIC50, read-out: IDO1_HELA_PXC50 (converted). It counts as cell-based. On the set-up: to induce the expression of indoleamine 2, 3-dioxygenase (IDO1). An outline of the steps:
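Compound potency reported as pIC50 from kynurenine/internal-standard ratio (RapidFire MS) in supernatant of IFN-γ-induced (10 nM) HeLa cells, 5,000 per well, after 2 days' treatment with 11-point dilutions. Cytotoxicity in the same format by luminescent ATP detection, reported as pCC50.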

The next series deals with naive CD4+CD25- T cells. The conditions noted are these: co-culture with DCs; cited from earlier work.
Another series concerns PAN02 pancreatic cells. Particulars: orally dosed, cited from earlier work.

Each structure is given as a SMILES string. Read-outs that look alike come from different tables or passages of the source.

On to `CC(C)CN(c1ccc([C@H](C)CC(=O)O)cc1Nc1nc(C(F)(F)F)ns1)[C@H]1CC[C@H](O)CC1` [Example 44, (R)-3-(4-(((1r,4R)-4-hydroxycyclohexyl) (isobutyl)amino)-3-((3-(trifluoromethyl)-1,2,4-thiadiazol-5-yl)amino)phenyl)butanoic Acid], for which the “PBMC TOX PXC50” value in series [1] is reported as less than 5. Further, the IC50 in series [2] is 0.631 nM. For the same molecule, the EC50 on ePL tagged IDO1 (read-out: pXC50_1 (converted)) is 1.7 nM.
Take `CO[C@H]1CC[C@@H](N(CC(C)C)c2ccc([C@H](C)CC(=O)O)cc2Nc2nc(C(F)(F)F)n[nH]2)CC1` [Example 51]: the “PBMC TOX PXC50” value in series [1] was less than 5. In series [2], the IC50 was 1.58 nM. Also, the EC50 on ePL tagged IDO1 (read-out: pXC50_1 (converted)) is 1.7 nM.
On to `CC(C)CN(CC(C)C)c1ccc(C2(CC(=O)O)CC2)cc1Nc1nc(C(F)(F)F)ns1` [Example 110, 2-(1-(4-(diisobutylamino)-3-((3-(trifluoromethyl)-1,2,4-thiadiazol-5-yl)amino)phenyl)cyclopropyl)acetic Acid], for which the “PBMC TOX PXC50” value in series [1] is recorded as 5.2. Further, in series [2] (pIC50), the “PBMC PXC50” value is recorded as 8.5. Further, at ePL tagged IDO1, the pXC50_1 came to 6.89 and the pXC50_2 was determined as 6.86.
Turning to `CC(C)CN(c1ccc([C@H](C)CC(=O)O)cc1Nc1ccc(C#N)cn1)C1CCOCC1` [Example 16, (R)-3-(3-((5-cyanopyridin-2-yl)amino)-4-(isobutyl(tetrahydro-2H-pyran-4-yl)amino)phenyl)butanoic Acid], in series [1], the “PBMC TOX PXC50” value is less than 5. Also, the IC50 in series [2] is 1.58 nM. Besides, the figures for the EC50 at ePL tagged IDO1 (read-out: pXC50_1 (converted)) and at ePL tagged IDO1 (read-out: pXC50_2 (converted)) were 257 nM and 316 nM, respectively.
In series [3], `CC(C)CN(c1ccc(-c2ccccc2C(=O)NCCCCCN)cc1Nc1nc(C(F)(F)F)ns1)C1CCCCC1` [example 283, N-(5-aminopentyl)-4′-[cyclohexyl(2-methylpropyl)amino]-3′-{[3-(trifluoromethyl)-1,2,4-thiadiazol-5-yl]amino}-[1,1′-biphenyl]-2-carboxamide] gave an HELA_IDO1_TOX_PXC50 of less than 5. For the same molecule, the IC50 in series [4] was 5010 nM. Besides, the EC50 at ePL tagged IDO1 (read-out: pXC50_1 (converted)) is greater than 100000 nM.
As for `NS(=O)(=O)NCCNc1nonc1C(=NO)Nc1ccc(F)c(Br)c1` [INCB204360, epacadostat], the “Conversion of naive CD4+CD25- T cells into CD4+FoxP3+ Tregs” value with naive CD4+CD25- T cells is reported as “blocked the conversion”. In addition, the “Inhibition of tumor growth” value in the series with PAN02 pancreatic cells (PAN02 pancreatic cells, immunocompetent mice) is “significant dose-dependent inhibition of tumor growth”. The Effect against tumor entry with PAN02 pancreatic cells (same tumor (PAN02) implanted in immune-deficient mice) is reported as “without effect”.
Regarding `CC(C)CN(c1ccc([C@H](C)CC(=O)O)cc1Nc1ccc(Cl)nc1)C1CCOCC1` [Example 6, (R)-3-(3-((6-chloropyridin-3-yl)amino)-4-(isobutyl(tetrahydro-2H-pyran-4-yl)amino)phenyl)butanoic Acid], in series [1], the “PBMC TOX PXC50” value is less than 5. For the same molecule, the IC50 in series [2] was 0.631 nM. The EC50 was 13.8 nM on ePL tagged IDO1 (read-out: pXC50_1 (converted)) and 20.9 nM on ePL tagged IDO1 (read-out: pXC50_2 (converted)).
Consider `CC(C)CC(=O)N1CCC(N(CC(C)C)c2ccc([C@H](C)CC(=O)O)cc2Nc2nc(C(F)(F)F)ns2)CC1` [Example 67, (R)-3-(4-(isobutyl(1-(3-methylbutanoyl)piperidin-4-yl)amino)-3-((3-(trifluoromethyl)-1,2,4-thiadiazol-5-yl)amino)phenyl)butanoic Acid], for which the “PBMC TOX PXC50” value in series [1] is on record as less than 5. The IC50 in series [2] was 2 nM. Also, the EC50 at ePL tagged IDO1 (read-out: pXC50_1 (converted)) was 72.4 nM; at ePL tagged IDO1 (read-out: pXC50_2 (converted)) it was 50.1 nM.
With `CC(C)CN(c1ccc([C@H](C)CC(=O)O)cc1Nc1ccc(Cl)nn1)C1CCOCC1` [Example 11, (R)-3-(3-((6-chloropyridazin-3-yl)amino)-4-(isobutyl(tetrahydro-2H-pyran-4-yl)amino)phenyl)butanoic Acid], the “PBMC TOX PXC50” value in series [1] is given as less than 5. Besides, the IC50 in series [2] was 1 nM. In addition, the EC50 on ePL tagged IDO1 (read-out: pXC50_1 (converted)) is 112 nM; on ePL tagged IDO1 (read-out: pXC50_2 (converted)) it was 191 nM.
